Reference: ChEMBL document CHEMBL1201862, “PubChem BioAssay data set” (2004)
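Compound exposure: 48 hours, 5 concentrations, 96-well plates. At the GI50, growth is halved.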 Activity calls are given as the source filed them. No stated cut-off is given here; in the data, active = GI50 up to about 1.1 µM and inactive = higher.

Experiments:
Experiment in all cases: NCI anticancer screen, dose series, 48 h
CCRF-CEM = tested on: CCRF-CEM
Malme-3M = tested on: Malme-3M
HT-29 = tested on: HT-29
UO-31 = tested on: UO-31
LOX IMVI = tested on: LOX IMVI
NCI-H23 = tested on: NCI-H23
COLO 205 = tested on: COLO 205
BT-549 = tested on: BT-549
SNB-75 = tested on: SNB-75
HOP-92 = tested on: HOP-92
HL-60 = tested on: HL-60
OVCAR-8 = tested on: OVCAR-8
OVCAR-4 = tested on: OVCAR-4
EKVX = tested on: EKVX
NCI-H226 = tested on: NCI-H226
MOLT-4 = tested on: MOLT-4
RPMI-8226 = tested on: RPMI-8226
NCI-H460 = tested on: NCI-H460
TK-10 = tested on: TK-10
NCI-H522 = tested on: NCI-H522

SMILES	GI50 (CCRF-CEM)	GI50 (Malme-3M)	GI50 (HT-29)	GI50 (UO-31)	GI50 (LOX IMVI)	GI50 (NCI-H23)	GI50 (COLO 205)	GI50 (BT-549)	GI50 (SNB-75)	GI50 (HOP-92)	GI50 (HL-60)	GI50 (OVCAR-8)	GI50 (OVCAR-4)	GI50 (EKVX)	GI50 (NCI-H226)	GI50 (MOLT-4)	GI50 (RPMI-8226)	GI50 (NCI-H460)	GI50 (TK-10)	GI50 (NCI-H522)
CCOC(=O)c1cc(Br)c(-c2onc(C)c2Br)[nH]1	> 100 µM (inactive)	34.4 µM (inactive)	> 100 µM (inactive)	> 100 µM (inactive)	98.6 µM (inactive)	49.3 µM (inactive)	> 100 µM (inactive)	43 µM (inactive)	> 100 µM (inactive)	48.1 µM (inactive)	> 100 µM (inactive)	27.6 µM (inactive)	88.1 µM (inactive)	27.9 µM (inactive)	30.1 µM (inactive)	> 100 µM (inactive)	> 100 µM (inactive)	65.6 µM (inactive)		
CCC(=O)NCC1CCCN2CCCCC12 (stereo not drawn)	> 100 µM (inactive)	44.7 µM (inactive)	> 100 µM (inactive)	> 100 µM (inactive)	> 100 µM (inactive)	> 100 µM (inactive)	> 100 µM (inactive)	> 100 µM (inactive)	> 100 µM (inactive)	> 100 µM (inactive)	> 100 µM (inactive)	> 100 µM (inactive)	> 100 µM (inactive)	> 100 µM (inactive)	> 100 µM (inactive)	> 100 µM (inactive)	> 100 µM (inactive)	> 100 µM (inactive)	> 100 µM (inactive)	
CCOC(=O)c1nc2ccccc2nc1Nc1ccc(Cl)c(Cl)c1	> 10 µM (inactive)	16.2 µM (inactive)	> 100 µM (inactive)	40.8 µM (inactive)		33.7 µM (inactive)	67.9 µM (inactive)	12.8 µM (inactive)	20.9 µM (inactive)	16.8 µM (inactive)	30.8 µM (inactive)	29.9 µM (inactive)	27.9 µM (inactive)	60.5 µM (inactive)		> 100 µM (inactive)	57.7 µM (inactive)	11 µM (inactive)	31.4 µM (inactive)	45.7 µM (inactive)
COC(=O)C(Cc1ccccc1)OC(=O)C(N)CC(=O)O (stereo not drawn)		> 100 µM (inactive)	> 100 µM (inactive)	> 100 µM (inactive)		5.11 µM (inactive)	> 100 µM (inactive)	> 100 µM (inactive)	< 0.01 µM (active)	> 100 µM (inactive)		> 100 µM (inactive)		> 100 µM (inactive)	> 100 µM (inactive)	> 100 µM (inactive)	> 100 µM (inactive)	> 100 µM (inactive)	> 100 µM (inactive)	> 100 µM (inactive)
O=C1/C(=C/c2cccc([N+](=O)[O-])c2)N=C(c2ccccc2)N1c1ccc2c(c1)Sc1cc(N3C(=O)/C(=C/c4cccc([N+](=O)[O-])c4)N=C3c3ccccc3)ccc1N2	16.9 µM (inactive)	21.4 µM (inactive)	91.8 µM (inactive)	53.3 µM (inactive)	27 µM (inactive)	30.8 µM (inactive)	40.9 µM (inactive)	23 µM (inactive)	16.7 µM (inactive)	28.1 µM (inactive)	21.6 µM (inactive)	29.2 µM (inactive)	18.7 µM (inactive)	25.4 µM (inactive)		36.9 µM (inactive)	26.7 µM (inactive)	41.9 µM (inactive)	19.6 µM (inactive)	19.1 µM (inactive)
Cc1ccc(S(=O)(=O)NC(=O)NC(CC(N)=O)C(=O)O)cc1 (stereo not drawn)	> 100 µM (inactive)	> 100 µM (inactive)	> 100 µM (inactive)	> 100 µM (inactive)	> 100 µM (inactive)	> 100 µM (inactive)	> 100 µM (inactive)	> 100 µM (inactive)	> 100 µM (inactive)	> 100 µM (inactive)	> 100 µM (inactive)	> 100 µM (inactive)	> 100 µM (inactive)			> 100 µM (inactive)	> 100 µM (inactive)	> 100 µM (inactive)	> 100 µM (inactive)	> 100 µM (inactive)
COc1cc(/C=C/c2ccc(OC)c(OC)c2)cc(OC)c1 [(E)-3,4,3',5'-TETRAMETHOXYSTILBENE]	76.9 µM (inactive)	49.2 µM (inactive)	19.3 µM (inactive)	19.1 µM (inactive)	19.9 µM (inactive)	22.9 µM (inactive)	19.2 µM (inactive)	23.7 µM (inactive)	34 µM (inactive)	> 100 µM (inactive)		39.6 µM (inactive)	53.2 µM (inactive)	39.9 µM (inactive)	30.2 µM (inactive)	46.6 µM (inactive)	83.4 µM (inactive)	22.2 µM (inactive)	56.1 µM (inactive)	18.8 µM (inactive)
COC(=O)c1nc2c(C)c(O)c(O)c([C@H](C)CCC=C(C)C)c2o1	2.64 µM (inactive)	26.7 µM (inactive)	19.5 µM (inactive)	17.7 µM (inactive)	43.2 µM (inactive)	28.1 µM (inactive)	16.2 µM (inactive)	37.6 µM (inactive)	18.2 µM (inactive)	26.5 µM (inactive)	16.7 µM (inactive)	38.5 µM (inactive)	30.1 µM (inactive)	29.7 µM (inactive)	17.9 µM (inactive)	24.9 µM (inactive)	13 µM (inactive)	46.5 µM (inactive)	39 µM (inactive)	
CC12CCC(=O)C=C1CCC1C2C(O)CC2(C)C(c3csc(N)n3)CCC12.O=S(=O)(O)c1ccc(Br)cc1 (stereo not drawn)	< 0.01 µM (active)	> 100 µM (inactive)	> 100 µM (inactive)	> 100 µM (inactive)	> 100 µM (inactive)	> 100 µM (inactive)	> 100 µM (inactive)	> 100 µM (inactive)	> 100 µM (inactive)	> 100 µM (inactive)		> 100 µM (inactive)	> 100 µM (inactive)	> 100 µM (inactive)	> 100 µM (inactive)	> 100 µM (inactive)	> 100 µM (inactive)		> 100 µM (inactive)	> 100 µM (inactive)
O=P(O)(O)OC1O[C@H](CO)[C@H](O)[C@H](O)[C@H]1O (stereo partly drawn)	> 100 µM (inactive)	> 100 µM (inactive)	> 100 µM (inactive)	> 100 µM (inactive)	> 100 µM (inactive)	> 100 µM (inactive)		> 100 µM (inactive)	> 100 µM (inactive)	> 100 µM (inactive)	> 100 µM (inactive)	> 100 µM (inactive)	> 100 µM (inactive)	> 100 µM (inactive)			> 100 µM (inactive)	> 100 µM (inactive)	> 100 µM (inactive)	> 100 µM (inactive)
C1CSCC2(COC2)CSCCSCC2(COC2)CS1	> 100 µM (inactive)		> 100 µM (inactive)	> 100 µM (inactive)	> 100 µM (inactive)	> 100 µM (inactive)	> 100 µM (inactive)	> 100 µM (inactive)	35.6 µM (inactive)	> 100 µM (inactive)	> 100 µM (inactive)	> 100 µM (inactive)	> 100 µM (inactive)	> 100 µM (inactive)		> 100 µM (inactive)		> 100 µM (inactive)	> 100 µM (inactive)	> 100 µM (inactive)
